# According to article PMC9182199, “Borylated 2,3,4,5-Tetrachlorophthalimide and Their 2,3,4,5-Tetrachlorobenzamide Analogues: Synthesis, Their Glycosidase Inhibition and Anticancer Properties in View to Boron Neutron Capture Therapy” (Molecules, 2022):
# Tests used:
# A431 = assay: MTT cell growth inhibition: A431; assay type: cell-based; conditions: Homo sapiens, A-431; A431 skin carcinoma; 25 µM; 72 h; MTT; read-out: Percentage (%) Cell Growth Inhibition in response to 25 µM of Drug
# Description: (§1) All test agents were prepared as stock solutions (20 mM) in dimethyl sulfoxide (DMSO) and stored at −20 °C. Cell lines used in the study included HT29 (colorectal carcinoma); U87, SJ-G2, (glioblastoma); MCF-7, (breast carcinoma); A2780 (ovarian carcinoma); H460 (lung carcinoma); A431 (skin carcinoma); Du145 (prostate carcinoma); BE2-C (neuroblastoma); MiaPaCa-2 (pancreatic carcinoma); and SMA560 (spontaneous murine astrocytoma), together with the one non-tumour-derived normal breast cell line (MCF10A). All cell lines were incubated in a humidified atmosphere 5% CO2 at 37 °C. The cancer cell lines were maintained in Dulbecco’s modified Eagle’s medium (DMEM; Sigma, Australia) supplemented with foetal bovine serum (10%), sodium pyruvate (10 mM), penicillin (100 IUmL^−1), streptomycin (100 µg mL^−1) and L-glutamine (2 mM).
# (§2) Growth inhibition was determined by plating cells in duplicate in medium (100 µL) at a density of 2500–4000 cells per well in 96-well plates. On day 0 (24 h after plating), when the cells were in logarithmic growth, medium (100 µL) with or without the test agent was added to each well. After 72 h drug exposure, growth inhibitory effects were evaluated using the MTT (3-(4,5-dimethyltiazol-2-yl)-2,5-diphenyltetrazolium bromide) assay and absorbance read at 540 nm. The percentage growth inhibition was calculated at a fixed concentration of 25 µM, based on the difference between the optical density values on day 0 and those at the end of drug exposure. Each data point is the mean ± the standard error of the mean (SEM) calculated from three replicates which were performed on separate occasions and separate cell line passages.
# A2780 = assay: MTT cell growth inhibition: A2780; assay type: cell-based; conditions: Homo sapiens; A2780 ovarian carcinoma; 25 µM; 72 h; MTT; read-out: Percentage (%) Cell Growth Inhibition in response to 25 µM of Drug
# Description: as §1, §2
# MCF10A = assay: MTT cell growth inhibition: MCF10A normal breast; assay type: cell-based; conditions: Homo sapiens, MCF-10A, 72 h, read-out: Percentage (%) Cell Growth Inhibition in response to 25 µM of Drug
# Description: as §1
# The non-cancer MCF10A cell line was maintained in DMEM:F12 (1:1) cell culture media, 5% heat-inactivated horse serum, supplemented with penicillin (50 IUmL^−1), streptomycin (50 µg mL^−1), HEPES (20 mM), L-glutamine (2 mM), epidermal growth factor (20 ng mL^−1), hydrocortisone (500 ng mL^−1), cholera toxin (100 ng mL^−1) and insulin ([…]).
# as §2
# MIA-Pa-Ca2 = assay: MTT cell growth inhibition: MIA-Pa-Ca2; assay type: cell-based; conditions: Homo sapiens, MIA PaCa-2, MIA-Pa-Ca2 pancreatic carcinoma, 72 h, read-out: Percentage (%) Cell Growth Inhibition in response to 25 µM of Drug
# Description: as §1, §2
# [1] = target: T1, coffee beans α-galactosidase (Coffea arabica, UniProt Q42656); assay: Glycosidase inhibition, laboratory 1: coffee beans α-galactosidase; assay type: biochemical; conditions: 100 μM, methanol
# T1 construct: purchased Sigma-Aldrich Co
# Description: (§3) The enzymes α-glucosidase (from yeast), β-glucosidases (from almond and bovine liver), α-galactosidase (from coffee beans), β-galactosidase (from bovine liver), α-mannosidase (from Jack bean), β-mannosidase (from snail), α-L-rhamnosidase (from Penicillium decumbens), α-L-fucosidase (from bovine kidney), trehalase (from porcine kidney), β-glucuronidases (from E. coli and bovine liver), amyloglucosidase (from A. niger), para-nitrophenyl glycosides, and various disaccharides were purchased from Sigma-Aldrich Co (St Louis, MO, USA).
# (§4) Brush border membranes were prepared from the rat small intestine according to the method of Kessler et al. and were assayed at pH 6.8 for rat intestinal maltase using maltose. For rat intestinal maltase, porcine kidney trehalase, and A. niger amyloglucosidase activities, the reaction mixture contained 25 mM maltose and the appropriate amount of enzyme, and the incubations were performed for 10–30 min at 37 °C. The reaction was stopped by heating at 100 °C for 3 min. After centrifugation (600× g; 10 min), the resulting reaction mixture was added to the Glucose CII-test Wako (Wako Pure Chemical Ind., Osaka, Japan). The absorbance at 505 nm was measured to determine the amount of the released D-glucose. Other glycosidase activities were determined using an appropriate para-nitrophenyl glycoside as substrate at the optimum pH of each enzyme. The reaction mixture contained 2 mM of the substrate and the appropriate amount of enzyme. The reaction was stopped by addition of 400 mM Na2CO3. The released para-nitrophenol was measured spectrometrically at 400 nm. All reactions run in methanol.
# H460 = assay: MTT cell growth inhibition: H460; assay type: cell-based; conditions: Homo sapiens, NCI-H460; H460 lung carcinoma; 25 µM; 72 h; MTT; read-out: Percentage (%) Cell Growth Inhibition in response to 25 µM of Drug
# Description: as §1, §2
# [2] = system: bovine liver β-glucuronidase; assay: Glycosidase inhibition, laboratory 2: bovine liver β-glucuronidase; assay type: biochemical; conditions: water
# Description: (§5) All enzymes and para-nitrophenyl substrates were purchased from Sigma. Enzymes were assayed at 27 °C in 0.1 M citric acid/0.2 M disodium hydrogen phosphate buffers at the optimum pH for the enzyme. The incubation mixture consisted of 10 μL enzyme solution, 10 μL of 1 mg/mL aqueous solution of extract and 50 μL of the appropriate 5 mM para-nitrophenyl substrate made up in buffer at the optimum pH for the enzyme. The reactions were stopped by addition of 70 μL 0.4 M glycine (pH 10.4) during the exponential phase of the reaction, which had been determined at the beginning using uninhibited assays in which water replaced inhibitor. Final absorbances were read at 405 nm using a Versamax microplate reader (Molecular Devices). Assays were carried out in triplicate, and the values given are means of the three replicates per assay. All reactions run in water.
# [3] = target: T2, bovine kidney α-L-fucosidase (Bos taurus, UniProt Q2KIM0); assay: Glycosidase inhibition, laboratory 1: α-L-fucosidase; assay type: biochemical; conditions: 100 μM, methanol
# T2 construct: purchased Sigma-Aldrich Co
# T2 sequence (Q2KIM0 23-468): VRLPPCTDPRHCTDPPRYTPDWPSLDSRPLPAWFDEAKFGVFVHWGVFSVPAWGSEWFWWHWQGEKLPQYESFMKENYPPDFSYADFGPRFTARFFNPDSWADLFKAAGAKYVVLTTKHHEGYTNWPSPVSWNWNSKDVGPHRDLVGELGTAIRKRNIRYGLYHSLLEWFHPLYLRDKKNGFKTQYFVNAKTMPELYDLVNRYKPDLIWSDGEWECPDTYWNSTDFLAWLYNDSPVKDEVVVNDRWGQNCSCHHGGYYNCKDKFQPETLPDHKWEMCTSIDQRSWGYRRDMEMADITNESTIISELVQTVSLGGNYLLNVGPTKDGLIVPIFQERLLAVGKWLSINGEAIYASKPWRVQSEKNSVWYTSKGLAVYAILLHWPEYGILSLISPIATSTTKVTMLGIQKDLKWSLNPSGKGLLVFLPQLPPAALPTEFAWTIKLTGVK
# Description: as §3, §4
# almond β-glucosidase = assay: Glycosidase inhibition, laboratory 1: almond β-glucosidase; assay type: biochemical; conditions: 100 μM, methanol
# Description: as §3, §4
# [4] = system: bovine kidney N-acetyl-β-glucosaminidase; assay: Glycosidase inhibition, laboratory 2: N-acetyl-β-glucosaminidase; assay type: biochemical; conditions: water
# Description: as §5
# T1 sequence (Q42656 16-378): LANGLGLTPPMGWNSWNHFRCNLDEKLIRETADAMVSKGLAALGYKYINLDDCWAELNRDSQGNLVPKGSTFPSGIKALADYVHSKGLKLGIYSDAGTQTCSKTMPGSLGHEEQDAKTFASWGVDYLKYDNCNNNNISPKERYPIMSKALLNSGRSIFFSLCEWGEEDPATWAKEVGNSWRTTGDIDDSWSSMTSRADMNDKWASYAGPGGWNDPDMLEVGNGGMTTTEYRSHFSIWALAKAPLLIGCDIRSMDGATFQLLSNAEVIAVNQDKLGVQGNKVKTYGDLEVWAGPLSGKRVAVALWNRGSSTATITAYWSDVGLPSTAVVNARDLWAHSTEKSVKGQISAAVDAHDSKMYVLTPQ
compound,measurement,setting,value
"CC1(C)OB(c2ccc(NC(=O)c3cc(Cl)c(Cl)c(Cl)c3Cl)cc2)OC1(C)C [para 5, 2,3,4,5-tetrachloro-N-(4-(4,4,5,5-tetramethyl-1,3,2-dioxaborolan-2-yl)phenyl)benzamide]",inhibition at 25 µM,A431,64 ± 4%
same,inhibition at 25 µM,A2780,50 ± 1%
same,inhibition at 25 µM,MCF10A,2 ± 11%
same,inhibition at 25 µM,MIA-Pa-Ca2,52 ± 1%
same,inhibition at 100 µM,[1],35.8%
same,inhibition at 25 µM,H460,54 ± 2%
same,% inhibition at ~400 μM,[2],−2.2%
same,inhibition at 100 µM,[3],5.1%
same,inhibition % at 100 μM,almond β-glucosidase,^aNI ^b (17.1%)
same,% inhibition at ~400 μM,[4],20.6%
